Assay results as given in PMC11321563, “Enolase inhibitors as therapeutic leads for Naegleria fowleri infection” (PLOS Pathogens, 2024).
“Also recorded” adds a separate entry of the source. Read-outs that look alike come from different tables or passages of the source.

Experiments:
N. fowleri ENO (NfENO) = N. fowleri ENO (NfENO) (Naegleria fowleri, UniProt A0A6A5BXC3); test: NfENO coupled enzyme activity/inhibition assay (PK/LDH, NADH fluorescence); format: biochemical
Description: (§1) ENO was assayed in triplicate using a coupled reaction to measure enzyme activity. Briefly, enzyme (50 nM) in assay buffer (100 mM HEPES, pH 8.0, 3.3 mM MgSO4) was loaded in black 96-well plates with or without inhibitors. To start the reaction, substrate buffer (3.75 mM 2-PG, 1.75 mM ADP, 1 U of pyruvate kinase/lactate dehydrogenase, and 0.4 mM NADH in assay buffer) was added to each well. The rate of reduction in fluorescence (excitation: 360 nm; emission: 460 nm), a measure of NAD production, was then scored on a Biotek Synergy H1 microplate reader every 20 seconds for 4 minutes. Kinetic analyses were performed with Prism 9.0 (GraphPad Software, San Diego, CA) using the Michaelis-Menten model. For assays involving inhibitors, compounds (in DMSO) were incubated at RT with enzyme in assay buffer […] for 15 minutes prior to initiation of the reaction by addition of the substrate. All assays were performed in triplicate with vehicle control (DMSO) included.

[1] = tested on: N. fowleri strain Nf69 (ATCC 30215) trophozoites; test: N. fowleri trophozoite viability, CellTiter-Glo, 48 hr; format: cell-based, Naegleria fowleri; details: for EC50: Naegleria fowleri
Description: N. fowleri strain Nf69 (ATCC 30215) or strain TY (ATCC 30107) trophozoites and N. gruberi strain NEG-M (ATCC 30224) were cultured axenically as previously described. Briefly, parasites were seeded at 1 x 10^4 cells/mL (N. fowleri) or 5 x 10^3 cells/mL (N. gruberi) in 100 μL of the indicated medium in white TC-treated 96-well plates (Thermo Scientific Nunc Microwell 136101). For assays under standard growth conditions ("+ glc"), N. fowleri cells were seeded into Nelson’s Complete Media (NCM, 0.17% liver infusion broth (BD Difco, Franklin Lakes, NJ), 0.17% glucose, 0.012% sodium chloride, 0.0136% potassium phosphate monobasic, 0.0142% sodium phosphate dibasic, 0.0004% calcium chloride, 0.0002% magnesium sulfate, 10% heat-inactivated fetal bovine serum (FBS), 1% penicillin-streptomycin) at 37°C. For assays in modified medium ("-glc/+gly"), cells were seeded into the media without glucose but supplemented with 10 mM glycerol. For standard growth of N. gruberi, cells were seeded into PYNFH-complete media (1.0% peptone, 1.0% yeast extract, 0.1% yeast nucleic acid, 0.0015% folic acid, 0.0001% hemin, 0.0362% potassium phosphate monobasic, 0.05% disodium phosphate, 10% heat-inactivated fetal bovine serum (FBS), 1% penicillin-streptomycin) at 25°C. For determination of EC50 value, concentrations of drug ranging from 0.07826–5 μM were used. After culturing for 48 hr (37°C, 5% CO2 for N. fowleri, 25°C, 5% CO2 for N. gruberi) in the presence of compound or vehicle, plates were equilibrated to RT for 15 min and CellTiter Glo reagent (Promega, Madison, WI, USA) was added followed by orbital shaking for 2 min. After an additional incubation (RT, 10 min), luminescence was scored on a BioTek Synergy H1 mircoplate reader. Parasite density was scored and kinetic analyses were performed with Prism 9.0 (GraphPad Software, San Diego, CA) using the Michaelis-Menten model. All viability assays were performed in technical triplicates with at least three biological replicates.

[2] = target: human ENO2 (gamma-enolase, HsENO2) (Homo sapiens, UniProt P09104); test: Human ENO2 coupled enzyme inhibition assay; format: biochemical
Sequence of human ENO2 (gamma-enolase, HsENO2) (P09104 whole entry): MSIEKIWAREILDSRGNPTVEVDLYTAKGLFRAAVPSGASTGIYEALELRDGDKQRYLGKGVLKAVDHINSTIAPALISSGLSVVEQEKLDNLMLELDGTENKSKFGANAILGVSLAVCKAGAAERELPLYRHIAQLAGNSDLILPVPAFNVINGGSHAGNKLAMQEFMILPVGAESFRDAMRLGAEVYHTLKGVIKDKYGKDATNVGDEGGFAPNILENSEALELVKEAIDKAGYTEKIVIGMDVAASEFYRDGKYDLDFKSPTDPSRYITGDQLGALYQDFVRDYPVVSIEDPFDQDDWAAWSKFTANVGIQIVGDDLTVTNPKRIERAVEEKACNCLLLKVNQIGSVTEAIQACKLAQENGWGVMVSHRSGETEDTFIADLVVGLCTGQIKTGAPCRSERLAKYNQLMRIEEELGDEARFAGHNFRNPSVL
Description: as §1

[3] = HEK-293 cytotoxicity, CellTiter Blue, 48 hr; format: cell-based; details: human, HEK-293 cells (ATCC CRL-1573); HEK-293, 48 hr; no superscript in Fig 1; read-out: Human cell line CC50
Description: HEK-293 (ATCC CRL-1573) cells were cultured axenically in Dulbecco’s Modified Eagle Medium with 4.5g/L D-glucose, L-glutamine (Gibco 11965) and 10% fetal bovine serum (FBS) at 37°C, 5% CO2. […] After a 48 hr incubation (37°C, 5% CO2), CellTiter Blue reagent (Promega, Madison, WI, USA) was added to each well. After an additional 3-hour incubation (37°C, 5% CO2) with reagent, fluorescence was scored on a a BioTek Synergy H1 mircoplate reader and percent growth inhibition values were solved.

Entamoeba histolytica = Entamoeba histolytica growth; format: cell-based
[4] = tested on: N. fowleri strain 69 trophozoites; test: Rat model of N. fowleri infection, nasal instillation treatment; format: in vivo, Naegleria fowleri
Source text: Twenty-four CD rats (12 females, 12 males, aged 42–48 days, Charles River) housed in pairs were infected by nasal instillation with 2.5 x 10^5 N. fowleri strain 69 trophozoites that had been isolated after passage through mice to ensure virulence. Rats were provided unlimited food and water throughout the duration of the experiment. The two groups consisted of equal numbers of males and females. […] Rodents were monitored carefully and euthanized when symptoms of infection, including failure to respond to stimuli or seizures, were evident. After 17 days, surviving animals were sacrificed and brains were removed to assess cure.

[5] = Intranasal dose-finding tolerability in uninfected CD rats; format: in vivo, rat; details: 1.6, 16, or 120 mg/kg HEX in PBS once daily for five days
Human cell line = details: read-out: Human cell line CC50, cited from earlier work
ENO1-/- glioma cells = details: read-out: EC50 against ENO1-/- glioma cells; cited from earlier work
N. gruberi = N. gruberi growth; format: cell-based, Naegleria gruberi
Description: N. fowleri strain Nf69 (ATCC 30215) or strain TY (ATCC 30107) trophozoites and N. gruberi strain NEG-M (ATCC 30224) were cultured axenically as previously described. Briefly, parasites were seeded at 1 x 10^4 cells/mL (N. fowleri) or 5 x 10^3 cells/mL (N. gruberi) in 100 μL of the indicated medium in white TC-treated 96-well plates (Thermo Scientific Nunc Microwell 136101). For assays under standard growth conditions ("+ glc"), N. fowleri cells were seeded into Nelson’s Complete Media (NCM, 0.17% liver infusion broth (BD Difco, Franklin Lakes, NJ), 0.17% glucose, 0.012% sodium chloride, 0.0136% potassium phosphate monobasic, 0.0142% sodium phosphate dibasic, 0.0004% calcium chloride, 0.0002% magnesium sulfate, 10% heat-inactivated fetal bovine serum (FBS), 1% penicillin-streptomycin) at 37°C. For assays in modified medium ("-glc/+gly"), cells were seeded into the media without glucose but supplemented with 10 mM glycerol. […] After an additional incubation (RT, 10 min), luminescence was scored on a BioTek Synergy H1 mircoplate reader. Parasite density was scored and kinetic analyses were performed with Prism 9.0 (GraphPad Software, San Diego, CA) using the Michaelis-Menten model. […]

[6] = tested on: intracranial orthotopic ENO1-deficient tumors; parameters: method as in PMID 33230295; details: cited from earlier work
[7] = parameters: method as in PMID 33230295; details: rats; cited from earlier work
N. fowleri trophozoites = test: Unbiased metabolomics of amoebae after HEX treatment (2DLC-MS); format: cell-based, Naegleria fowleri; details: cells grown in glycerol, HEX-treated vs untreated
Description: For unbiased metabolomics analyses, N. fowleri trophozoites were grown to near 100% confluency in 6-well TC-treated plates (Thermo Scientific Nunclon Delta Surface 140685). […] Samples were then washed three times in RT PBS prior to the addition of ice-cold CH3CN. Plates were then incubated at –20°C for 20 min, followed by the addition of ice-cold nanopure H2O and removal of the solution to sterile microcentrifuge tubes. This process was repeated twice, and the total volume of extraction material was adjusted to 2.5 x 10^6 cell equivalents per sample. Tubes were stored at –80°C prior to analysis.
Each cell sample was vortexed with glass beads for 5 min in a MM200 Mix Grinder (Retsch USA, Newtown, PA, USA). The mixture was centrifuged at 14,000 rpm for 20 min at 4°C. The supernatant was transferred into a new tube and lyophilized overnight. The dried sample was reconstituted in 60 μL 50% CH3CN and analyzed in random order on a parallel two-dimensional liquid chromatography-mass spectrometry (2DLC-MS) system, a Thermo DIONEX UltiMate 3000 HPLC system (Thermo Fisher Scientific, Waltham, MA, USA) coupled with a Thermo Q Exactive HF Hybrid Quadrupole-Orbitrap Mass Spectrometer (Thermo Fisher Scientific, Waltham, MA, USA). […] Each sample was analyzed by the 2DLC-MS under both positive (+) and negative (–) modes to obtain full MS data for metabolite quantification. […]

[8] = tested on: N. fowleri strain Nf69 (ATCC 30215) trophozoites; test: N. fowleri trophozoite viability, CellTiter-Glo, 48 hr; format: cell-based; details: Naegleria fowleri, ATCC30215, read-out: EC50 after short exposure
[9] = parameters: method as in PMID 33230295; details: non-human primates, cited from earlier work
Balamuthia mandrillaris = Balamuthia mandrillaris growth; format: cell-based
[10] = tested on: ENO1-rescued glioma and other control cells; parameters: method as in PMID 33230295; details: cited from earlier work
[11] = recombinant NfENO, 50 nM enzyme, 15 min preincubation with compound, read-out: NfENO IC50
[12] = ATCC30215, 48 h, read-out: N. fowleri EC50
[13] = 15 min preincubation with compound, read-out: HsENO2 IC50
[14] = value with superscript 3 in Fig 1, footnote not given, ref superscript 3

Sequence of N. fowleri ENO (NfENO) (A0A6A5BXC3 entry or part of it): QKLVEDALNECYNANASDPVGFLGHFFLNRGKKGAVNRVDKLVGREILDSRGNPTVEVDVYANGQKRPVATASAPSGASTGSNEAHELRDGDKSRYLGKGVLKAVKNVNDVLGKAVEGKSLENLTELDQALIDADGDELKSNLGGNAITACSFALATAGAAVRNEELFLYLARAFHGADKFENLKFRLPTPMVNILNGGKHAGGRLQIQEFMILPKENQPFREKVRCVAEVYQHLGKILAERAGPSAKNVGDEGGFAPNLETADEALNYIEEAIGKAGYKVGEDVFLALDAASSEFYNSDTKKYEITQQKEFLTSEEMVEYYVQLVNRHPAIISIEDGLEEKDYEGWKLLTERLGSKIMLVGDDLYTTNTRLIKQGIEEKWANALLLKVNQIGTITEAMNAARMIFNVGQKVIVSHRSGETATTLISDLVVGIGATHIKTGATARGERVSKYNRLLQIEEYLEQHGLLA

## O=C(O)[C@@H](CO)OP(=O)(O)O [2-PG, 2-phosphoglycerate]
N. fowleri ENO (NfENO); truncation residues 44–512, NafoA.00379.a.B5.PW38978, read-out: apparent KM for 2-PG
  Km: 923 ± 0.336 µM

## O=C1C(P(=O)(O)O)CCN1OCc1ccccc1 (centres unmarked) [Benzyl- deoxy- SF2312]
N. fowleri ENO (NfENO); [11]
  IC50: > 10000 nM
[1]; [12]
  EC50: > 10000 nM
[2]; [13]
  IC50: > 10000 nM

## O=C1C(P(=O)(O)O)CCCCN1OCc1ccccc1 (centres unmarked) [Benzyl-HEPTA]
N. fowleri ENO (NfENO); [11]
  IC50: > 10000 nM
[1]; [12]
  EC50: > 10000 nM
[2]; [13]
  IC50: > 10000 nM

## O=C1C(P(=O)(O)O)CCCN1OCc1ccccc1 (centres unmarked) [BenzylHEX]
N. fowleri ENO (NfENO); at 10 μM
  impact on NfENO: no impact
N. fowleri ENO (NfENO); [11]
  IC50: > 10000 nM
[1]; [12]
  EC50: > 10000 nM
[2]; [13]
  IC50: > 10000 nM

## CC(C)OC(=O)[C@H](C)NP(=O)(OCOC(=O)C(C)(C)C)C1CCCN(O)C1=O (some centres unmarked) [CDP25]
N. fowleri ENO (NfENO)
  IC50: > 10000 nM
[1]; [12]
  EC50: 310 ± 150 nM
[3]
  CC50 at 48 h: > 5000 nM

## O=C1C(P(=O)(O)O)CCN1O (centres unmarked) [Deoxy-SF2312, (1-hydroxy-2-oxopyrrolidin-3-yl) phosphonic acid]
N. fowleri ENO (NfENO)
  IC50: 1200 ± 470 nM
[1]; [12]
  EC50: 950 ± 200 nM
[2]
  IC50: 100 ± 40 nM
[2]; ratio of IC50 values
  fold more potent against ENO2 than NfENO: more than 10 fold
[3]
  CC50 at 48 h: > 200000 nM

## O=C1C(P(=O)(O)O)CCCCN1O (centres unmarked) [HEPTA, (1-hydroxy-2-oxoazepan-3-yl) phosphonic acid]
N. fowleri ENO (NfENO)
  IC50: 4700 ± 1400 nM
[1]; [12]
  EC50: > 10000 nM
[2]
  IC50: 5800 ± 880 nM

## O=C1C(P(=O)(O)O)CCCN1O (centres unmarked) [HEX, (1-hydroxy-2-oxopiperidin-3-yl) phosphonic acid]
Entamoeba histolytica
  impact on growth: no impact
[4]; HEX 3 mg/kg nasal instillation for 10 days, >50% of the population survived
  median survival time: indeterminable; also recorded: undefined
[4]; day 11, HEX 3 mg/kg nasal instillation once a day for 10 days from day 2
  animals remaining at conclusion of treatment: 11 of 12
[4]; of the eight HEX-treated survivors
  survivors with brains positive for amoebae by culture: six of the eight and six
[5]
  adverse effects of intranasal instillation: none of the rats had any noticeable reaction to treatment
N. fowleri ENO (NfENO)
  IC50: 140 ± 40 nM
  mode of NfENO inhibition: competitive inhibitor
[1]; [12]
  EC50: 210 ± 20 nM
[1]; ATCC30215, 336 h, read-out: EC50 of trophozoites cultured from brain of HEX-treated rodent
  EC50: 90 ± 40 nM
[1]; ATCC30215, 336 h, read-out: EC50 of trophozoites cultured from brain of PBS-treated (Vehicle) rodent
  EC50: 100 ± 80 nM
[1]; ATCC30215, 504 h, read-out: EC50 after removal of selection
  EC50: 110 ± 10 nM
[1]; ATCC30215, read-out: EC50 in glycerol medium
  EC50: 2500 ± 110 nM
[1]; ATCC30215, read-out: EC50 of HEX-adapted amoebae
  EC50: 570 ± 300 nM
Human cell line; [14]
  CC50: > 300000 nM
ENO1-/- glioma cells
  EC50: 1300 nM
[2]
  IC50: 360 ± 40 nM
N. gruberi
  impact on growth: no impact
[6]
  intracranial tumor growth: almost completely inhibited intracranial tumor growth
[7]
  plasma elimination half-life: about 60 minutes
N. fowleri trophozoites
  decrease in pyruvate levels: ~50%
[8]
  EC50: 8060 ± 2600 nM
[9]; IP 300 mg/kg, for several hours
  plasma concentrations: about 750 μM
[9]; IP
  IP dose tolerated without adverse effects: 300 mg/kg
Balamuthia mandrillaris
  impact on growth: no impact; also recorded: inactive
[10]
  CC50: > 300000 nM

## CC(C)(C)C(=O)OCOP(=O)(OCOC(=O)C(C)(C)C)C1CCCN(O)C1=O (centres unmarked) [POMHEX]
N. fowleri ENO (NfENO); [11]
  IC50: > 10000 nM
[1]; [12]
  EC50: 700 ± 100 nM
Human cell line; [14]
  CC50: > 4900 nM
[2]; [13]
  IC50: > 10000 nM

## CC(C)(C)C(=O)OCOP(=O)(OCOC(=O)C(C)(C)C)C1CC(O)N(O)C1=O (centres unmarked) [POMSF]
N. fowleri ENO (NfENO); [11]
  IC50: > 10000 nM
[1]; EC50 ratio
  increase in amoebicidal potency relative to SF2312: about 2.4 fold
[1]; [12]
  EC50: 660 ± 90 nM
[2]; [13]
  IC50: > 10000 nM

## O=C1C(P(=O)(O)O)CC(O)N1O (centres unmarked) [SF2312, (1,5-dihydroxy-2-oxopyrrolidin-3-yl) phosphonic acid, reference compound]
N. fowleri ENO (NfENO)
  IC50: 310 ± 70 nM
[1]; [12]
  EC50: 1600 ± 110 nM
Human cell line; value with superscript 1 in Fig 1, footnote not given, ref superscript 1
  CC50: > 200000 nM
[2]
  IC50: 630 ± 10 nM
